≈ marks a conversion by molar mass, not a printed value. Some results are limits rather than exact numbers.

Data set [1] deals with Candida albicans. The experiment in a line: Antifungal activity against Candida albicans ATCC 24433. It counts as functional.
In another data set the test system is Pichia kudriavzevii. Put plainly: Antifungal activity against Candida krusei ATCC 6258. Format: functional.
Data set [2] is described as follows: Bioavailability in rat at 20 mg/kg, po. The conditions noted are these: in vivo. It counts as ADME, organism-based.
The subject of another data set is Nakaseomyces glabratus. Put plainly: Antifungal activity against Candida glabrata ATCC 90030. It counts as functional.
A further data set deals with Aspergillus flavus. Put plainly: Antifungal activity against Aspergillus flavus SANK 18497. Format: functional.
The test system of the next data set is Candida parapsilosis. Put plainly: Antifungal activity against Candida parapsilosis ATCC 90018. Format: functional. The note with it: Lodderomyces parapsilosis.
Data set [3] concerns Candida albicans. Put plainly: Antifungal activity against fluconazole-resistant Candida albicans TIMM3164. It counts as functional.
Data set [4] can be described thus: Chemical stability assessed as half life in HCl. It counts as physicochemical.
For data set [5], the system named is Aspergillus fumigatus. The experiment in a line: Antifungal activity against Aspergillus fumigatus SANK 10569. Format: functional.
A further data set concerns Cryptococcus neoformans. Put plainly: Antifungal activity against Cryptococcus neoformans TIMM 1855. Format: functional.
The test system of data set [6] is Candida albicans. The experiment in a line: Antifungal activity against Candida albicans ATCC 64550. Format: functional.
The test system of data set [7] is Aspergillus fumigatus. Put plainly: Antifungal activity against Aspergillus fumigatus ATCC 26430. It counts as functional.
Data set [8] has as its system Candida albicans. Put plainly: Antifungal activity against Candida albicans SANK 51486. Format: functional.
In a further data set the test system is Candida tropicalis. Put plainly: Antifungal activity against Candida tropicalis ATCC 750. Format: functional.

Regarding `C[C@@H](S[C@H]1CO[C@H](/C=C/C=C/c2ccc(C#N)cc2F)OC1)[C@](O)(Cn1cncn1)c1ccc(F)cc1F` [EMBECONAZOLE], the minimum inhibitory concentration (MIC) (in general, the smallest concentration in the dilution series that meets the test's criterion for growth inhibition) came out at 0.016 µg/mL (≈ 0.0295 µM) against Candida albicans [1]; 0.25 µg/mL (≈ 0.461 µM) with Pichia kudriavzevii; 1 µg/mL (≈ 1.84 µM) against Nakaseomyces glabratus; 0.25 µg/mL (≈ 0.461 µM) in the data set on Aspergillus flavus; 0.016 µg/mL (≈ 0.0295 µM) in the data set on Candida parapsilosis; 0.063 µg/mL (≈ 0.116 µM) in the data set with Candida albicans [3]. The MIC was 0.063 µg/mL (≈ 0.116 µM) against Aspergillus fumigatus [5]; 0.016 µg/mL (≈ 0.0295 µM) in the data set with Cryptococcus neoformans; 0.5 µg/mL (≈ 0.922 µM) in the data set on Candida albicans [6]; 0.063 µg/mL (≈ 0.116 µM) with Aspergillus fumigatus [7]; no more than 0.008 µg/mL with Candida albicans [8]; 0.25 µg/mL (≈ 0.461 µM) against Candida tropicalis. Also, the bioavailability in [2] is 113%. Also, the half-life (commonly how long it takes for the measured level to halve) in [4] was determined as 0.107 h.

Regarding `C[C@@H](S[C@H]1CO[C@H](c2ccc(C(=O)Nc3ccc(C#N)cc3)cc2)OC1)[C@](O)(Cn1cncn1)c1ccc(F)cc1F`, the MIC with Candida albicans [1] was no more than 0.008 µg/mL; against Pichia kudriavzevii, 0.063 µg/mL (≈ 0.106 µM); with Nakaseomyces glabratus it was 2 µg/mL (≈ 3.38 µM); against Aspergillus flavus it was 0.125 µg/mL (≈ 0.211 µM); in the data set with Candida parapsilosis, no more than 0.008 µg/mL; with Candida albicans [3], no more than 0.008 µg/mL. For the same compound, the MIC was 0.031 µg/mL (≈ 0.0524 µM) in the data set with Aspergillus fumigatus [5]; 0.031 µg/mL (≈ 0.0524 µM) in the data set with Cryptococcus neoformans; 0.25 µg/mL (≈ 0.423 µM) against Candida albicans [6]; 0.031 µg/mL (≈ 0.0524 µM) in the data set with Aspergillus fumigatus [7]; no more than 0.008 µg/mL against Candida albicans [8]; 0.016 µg/mL (≈ 0.027 µM) against Candida tropicalis. Besides, the bioavailability in data set [2] came out at 31.7%. Moreover, the half-life in data set [4] amounted to 2.67 h.

As for `OC(Cn1cncn1)(Cn1cncn1)c1ccc(F)cc1F` [FLUCONAZOLE], the MIC against Candida albicans [1] is 0.5 µg/mL (≈ 1.63 µM); in the data set on Pichia kudriavzevii it was greater than 4 µg/mL; against Nakaseomyces glabratus, greater than 4 µg/mL; in the data set with Aspergillus flavus, greater than 4 µg/mL; in the data set with Candida parapsilosis, 0.5 µg/mL (≈ 1.63 µM); against Candida albicans [3], greater than 4 µg/mL. The minimal inhibitory concentration (MIC) in the data set on Aspergillus fumigatus [5] was greater than 4 µg/mL; against Cryptococcus neoformans, greater than 4 µg/mL; against Candida albicans [6] it was greater than 4 µg/mL; with Aspergillus fumigatus [7], greater than 4 µg/mL; in the data set with Candida albicans [8], 0.25 µg/mL (≈ 0.816 µM); with Candida tropicalis, 2 µg/mL (≈ 6.53 µM).
